Read-outs that look alike come from different tables or passages of the source.
How the values were obtained:
[1] = target: T1, HDAC8 (Homo sapiens, UniProt Q9BY41); experiment: In vitro HDAC8 activity assay (Fluor de Lys-HDAC8); format: biochemical; design: made in house; details: for SI (HDAC6/HDAC8): selectivity index, HDAC6 over HDAC8
T1 sequence (Q9BY41 1-377): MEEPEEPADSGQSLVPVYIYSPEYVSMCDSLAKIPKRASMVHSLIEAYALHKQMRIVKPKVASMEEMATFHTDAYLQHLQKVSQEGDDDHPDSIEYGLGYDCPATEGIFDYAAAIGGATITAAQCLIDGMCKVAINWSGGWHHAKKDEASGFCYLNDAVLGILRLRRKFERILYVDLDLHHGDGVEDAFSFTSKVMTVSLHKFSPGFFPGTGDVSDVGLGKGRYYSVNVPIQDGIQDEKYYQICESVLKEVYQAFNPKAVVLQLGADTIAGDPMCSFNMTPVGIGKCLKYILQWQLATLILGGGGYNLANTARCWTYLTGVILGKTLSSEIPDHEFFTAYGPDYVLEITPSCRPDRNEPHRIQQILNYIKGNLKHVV
Procedure: Recombinant hHDAC8 was produced by Romier et al. in Strasbourg. The HDAC8 activity assays were performed according to the commercial HDAC8 Fluorometric Drug Discovery Kit (Fluor de Lys(R)-HDAC8, BML-KI178) corresponding to the instructions of the manufacturer. As substrate a tetrapeptide connected to aminomethylcoumarin (AMC) H2N-Arg- His-Lys(Ac)-Lys(Ac)-AMC was synthesized as previously described. The enzyme was incubated for 90 min at 37 °C, with a substrate concentration of 50 µM and increasing concentrations of inhibitors. The stop-solution-containing inhibitor was added to stop the hHDAC8 activity, and Trypsin was added to release the AMC. The solution was incubated for 20 min at 37 °C to develop the assay.
(§1) Inhibition was measured at increasing concentration and IC50 was calculated by nonlinear regression with Origin 9.0G software.

[2] = target: HDAC1 (Homo sapiens, UniProt Q13547); experiment: In vitro HDAC inhibitory activity assay, recombinant HDAC1 (fluorogenic substrate ZMAL); format: biochemical; design: purchased BPS Biosciences; details: for inhibition at 1 µM / inhibition at 10 µM: read-out: HDAC1 % inhib. at given conc.
Procedure: (§2) The in vitro testing on recombinant HDACs was performed as previously described. Recombinant human HDAC1 and −6 were purchased from BPS Biosciences. The enzyme inhibition was determined by using a reported homogenous fluorescence assay. […] Fluorescence intensity was measured at an excitation wavelength of 390 nm and an emission wavelength of 460 nm in a microtiter plate reader (BMG Polarstar).
as §1

[3] = target: T2, HDAC6 (Homo sapiens, UniProt Q9UBN7); experiment: In vitro HDAC inhibitory activity assay, recombinant HDAC6 (fluorogenic substrate ZMAL); format: biochemical; design: purchased BPS Biosciences; details: for inhibition at 1 µM / inhibition at 10 µM: read-out: HDAC6 % inhib. at given conc.
T2 sequence (Q9UBN7 1-1215): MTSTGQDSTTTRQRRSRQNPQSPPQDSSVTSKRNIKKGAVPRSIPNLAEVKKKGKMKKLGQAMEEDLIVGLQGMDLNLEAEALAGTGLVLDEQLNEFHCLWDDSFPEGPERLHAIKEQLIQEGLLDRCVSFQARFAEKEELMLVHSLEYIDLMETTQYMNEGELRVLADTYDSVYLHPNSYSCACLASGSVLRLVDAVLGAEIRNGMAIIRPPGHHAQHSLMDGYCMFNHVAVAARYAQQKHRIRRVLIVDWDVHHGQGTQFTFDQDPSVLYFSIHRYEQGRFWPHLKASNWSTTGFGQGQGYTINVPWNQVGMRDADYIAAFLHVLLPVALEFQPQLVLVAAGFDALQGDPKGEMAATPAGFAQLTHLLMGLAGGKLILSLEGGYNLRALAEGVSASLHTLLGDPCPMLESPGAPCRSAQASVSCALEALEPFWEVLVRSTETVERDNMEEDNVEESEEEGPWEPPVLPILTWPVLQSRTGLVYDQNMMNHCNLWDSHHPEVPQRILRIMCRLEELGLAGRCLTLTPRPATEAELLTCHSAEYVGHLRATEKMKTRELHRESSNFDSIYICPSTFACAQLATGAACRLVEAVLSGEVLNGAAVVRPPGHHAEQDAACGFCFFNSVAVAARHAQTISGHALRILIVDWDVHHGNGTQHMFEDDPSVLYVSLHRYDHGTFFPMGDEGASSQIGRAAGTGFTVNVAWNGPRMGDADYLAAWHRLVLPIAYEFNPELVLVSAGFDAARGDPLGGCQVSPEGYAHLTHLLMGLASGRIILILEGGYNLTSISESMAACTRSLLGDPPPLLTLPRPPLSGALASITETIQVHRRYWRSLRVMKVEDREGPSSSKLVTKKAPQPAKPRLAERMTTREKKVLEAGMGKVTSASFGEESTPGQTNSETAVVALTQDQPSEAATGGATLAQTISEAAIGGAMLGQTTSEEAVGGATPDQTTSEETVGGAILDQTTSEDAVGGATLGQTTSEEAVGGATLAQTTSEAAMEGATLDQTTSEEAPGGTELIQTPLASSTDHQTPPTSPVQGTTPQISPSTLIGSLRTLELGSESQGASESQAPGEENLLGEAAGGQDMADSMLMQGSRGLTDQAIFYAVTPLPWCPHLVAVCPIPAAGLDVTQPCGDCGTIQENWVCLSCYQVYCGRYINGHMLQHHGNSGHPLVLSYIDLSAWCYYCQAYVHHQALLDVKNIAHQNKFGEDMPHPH
Procedure: as §2, §1

[4] = test system: SK-N-BE(2)-C cells; experiment: Colony formation assay in neuroblastoma cells; format: cell-based, human; details: 5 and 10 μM, treatment 96 h, then 6 days without treatment
Procedure: In order to measure the functional consequence of HDAC8 inhibition, two different cell lines were used: SK-N-BE(2)-C cells, which display MYCN amplification and non-functional p53; and IMR-32 cells having p53 wild type, which both respond with growth arrest and signs of neuronal differentiation upon knockdown or selective inhibition of HDAC8. Growth arrest was determined by colony formation and viability assays. Cells were treated with 5 and 10 μM of each of the CRBN_ based HDAC8 PROTACs having a triazole linker (CRBN_1d, CRBN_1e, CRBN_1f) for 96 h, followed by culturing for another 6 days without treatment (Figure 5A). This assesses whether the treatment impairs the clonogenic growth capacity of tumor cells, indicating effectiveness of compounds on the survival and proliferation of tumor cells.
In six-well plates, 500 cells were seeded and treated as indicated. Viable colonies were stained after a minimum of 10 days with crystal violet. For quantification, the mean intensity of each well of the 8-bit binary picture was measured with ImageJ software (U. S. National Institutes of Health, Bethesda, MD, USA; http://imagej.nih.gov/ij/ (accessed on 1 March 2022)).
Figure 5 (A) Neuroblastoma SK-N-BE(2)-C cells; Colony Assay, 10 days (compound treatment within first 96 h). Stained with crystal violet and quantified with ImageJ. (B,C) Trypan Blue assay for detection of dead cells. Neuroblastoma IMR-32 cells were either treated with 5 µM (B) or 10 µM (C). (D,E) Cell proliferation assessed via counting of viable cells. IMR-32 cells were either treated with 5 µM (D) or 10 µM (E) PROTACs. HDAC8i PCI-34501 served as a positive control, untreated (MEM) and solvent (DMSO) treated cells served as negative controls.

[5] = target: T1, HDAC8; experiment: HDAC8 degradation in SK-N-BE(2)-C neuroblastoma cells (Western blot); format: cell-based; design: endogenous in cells; host or cells: SK-N-BE(2)-C
Procedure: Whole cell lysates from treated SK-N-BE(2)-C neuroblastoma cells were taken and the protein levels for HDAC8 and the acetylation of its substrate SMC3 were determined (Figure 6). As a control for HDAC6, we also assessed acetylation levels of α-tubulin. […] Western blot analysis was performed as described previously (Kolbinger et al.).
Figure 6 (A) SK-N-BE(2)-C neuroblastoma cells were treated for indicated time points with 10 µM of PROTACs. Degradation of HDAC8 and acetylation of HDAC8 target was analyzed via Western blot. (B) SK-N-BE(2)-C neuroblastoma cells were treated for 6 h with indicated concentrations of HyT_1p, CRBN_1b and HyT_1m. Acetylation of HDAC8 target SMC3 and HDAC6 target tubulin, as well as total HDAC8 levels, were assessed by Western blot. Quantified ac-SMC3 or ac-tubulin expression, respectively, was normalized to the respective tubulin loading control and to the solvent control (DMSO). This quantification is reflected by the numbers below each blot. […] Total HDAC6, total HDAC1, total HDAC8, and acetyl-histone H4 expression levels, were assessed by Western blot. Total GAPDH protein levels served as a loading control (LC). * unspecific bands obtained through reprobing of the membrane.

[6] = Table 2, inhibitors synthesized in this paper (S1)
[7] = Table 2, inhibitors synthesized in this paper (S1), read-out: HDAC1 IC50
[8] = Table 2, inhibitors synthesized in this paper (S1), read-out: HDAC6 IC50
[9] = Table 1, PROTACs, read-out: HDAC6 IC50

HDAC1, sequence (Q13547 whole entry): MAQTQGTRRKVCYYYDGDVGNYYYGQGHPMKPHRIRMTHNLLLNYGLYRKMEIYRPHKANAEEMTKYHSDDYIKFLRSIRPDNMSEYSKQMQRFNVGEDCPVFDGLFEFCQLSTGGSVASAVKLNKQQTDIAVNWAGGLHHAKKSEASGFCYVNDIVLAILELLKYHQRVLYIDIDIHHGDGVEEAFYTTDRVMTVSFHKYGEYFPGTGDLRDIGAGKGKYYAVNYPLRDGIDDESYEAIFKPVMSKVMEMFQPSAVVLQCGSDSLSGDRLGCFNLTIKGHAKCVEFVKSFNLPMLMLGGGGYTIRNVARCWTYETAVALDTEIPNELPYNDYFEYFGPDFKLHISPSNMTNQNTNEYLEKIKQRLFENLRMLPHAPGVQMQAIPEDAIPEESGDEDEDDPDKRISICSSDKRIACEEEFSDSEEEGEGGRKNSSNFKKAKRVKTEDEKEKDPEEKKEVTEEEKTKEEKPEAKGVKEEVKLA

SMILES | IC50 ([1]; Table 1, PROTACs) | inhibition at 1 µM [2] | inhibition at 10 µM [2] | inhibition at 1 µM [3] | inhibition at 10 µM [3] | SI (HDAC6/HDAC8) [1] | other results
COc1ccc(CNc2cc(C(=O)NO)ccc2OC)cc1 [2h] | – | – | – | – | – | – | IC50 [1, 6]: 10 ± 1 nM; IC50 [2, 7]: > 20000 nM; IC50 [3, 8]: 150 ± 1 nM
O=C(COc1ccc(CNc2cc(C(=O)NO)ccc2Cl)cc1)OCc1ccccc1 [2i] | – | – | – | – | – | – | IC50 [1, 6]: 410 ± 50 nM; IC50 [2, 7]: > 20000 nM; IC50 [3, 8]: 7400 ± 600 nM
COc1ccc(C(=O)NO)cc1NC(=O)c1ccc(NC(=O)CCCCCNc2cccc3c2C(=O)N(C2CCC(=O)NC2=O)C3=O)cc1 (stereo not shown) [CRBN_1a] | 90 ± 30 nM | – | – | – | – | 2 | IC50 [2]: 4370 ± 650 nM; IC50 [3]: 220 ± 60 nM
COc1ccc(C(=O)NO)cc1NC(=O)c1ccc(CNC(=O)CCCCCCCNc2cccc3c2C(=O)N(C2CCC(=O)NC2=O)C3=O)cc1 (stereo not shown) [CRBN_1c] | 150 ± 10 nM | 22.2% | 40.1% | – | – | 2 | IC50 [3]: 250 ± 20 nM
Cc1ccc(C(=O)NO)cc1NCc1ccc(OCc2cn(CCCCCC(=O)Nc3cccc4c3C(=O)N(C3CCC(=O)NC3=O)C4=O)nn2)cc1 (stereo not shown) [CRBN_1d] | 370 ± 50 nM | – | – | – | – | 18 | Effect on colony formation [4]: strongest effect on colony formation; IC50 [2]: 13100 ± 600 nM; IC50 [3]: 6700 ± 600 nM; HDAC8 degradation ([5]; SK-N-BE(2)-C cells, up to 10 µM, Western blot): failed to degrade HDAC8
O=C(COc1ccc(CNc2cc(C(=O)NO)ccc2Cl)cc1)NCCCOCCOCCOCCCNc1cccc2c1C(=O)N(C1CCC(=O)NC1=O)C2=O (stereo not shown) [CRBN_1h] | 330 ± 190 nM | – | – | 33.5% | 66.8% | – | IC50 [2]: 3910 ± 480 nM
O=C(COc1ccc(C(=O)Nc2cc(C(=O)NO)ccc2Cl)cc1)NCCCOCCOCCOCCCNc1cccc2c1C(=O)N(C1CCC(=O)NC1=O)C2=O (stereo not shown) [CRBN_1i] | 650 ± 140 nM | 20.7% | 67.4% | 85.4% | 92.3% | – | –
O=C(COc1ccc(C(=O)Nc2cccc(C(=O)NO)c2)cc1)NCCCOCCOCCOCCCNc1cccc2c1C(=O)N(C1CCC(=O)NC1=O)C2=O (stereo not shown) [CRBN_1j] | 4840 ± 1050 nM | 13.9% | 60% | 46.2% | 80.9% | – | –
C[C@@H]1C[C@@H]([C@H](O)CC2CC(=O)NC(=O)C2)C(=O)[C@@H](C)C1 [cycloheximide, reference compound] | – | – | – | – | – | – | HDAC8 degradation with de novo protein synthesis inhibited ([5]; 24 h, cycloheximide 35 nM, PROTAC 10 μM): no effect

More lines, main results first:

IC50 ([1]; Table 1, PROTACs) | inhibition at 1 µM [2] | inhibition at 10 µM [2] | inhibition at 1 µM [3] | inhibition at 10 µM [3] | SMILES | SI (HDAC6/HDAC8) [1] | other results
250 ± 30 nM | – | – | – | – | O=C1CCC(N2C(=O)c3cccc(NC(=O)CCCCCn4cc(COc5ccc(CNc6cc(C(=O)NO)ccc6Cl)cc5)nn4)c3C2=O)C(=O)N1 (stereo not shown) [CRBN_1f] | 5 | Effect on colony formation [4]: inactive; IC50 ([2]; Table 1, PROTACs, read-out: HDAC1 IC50): 10800 ± 700 nM; IC50 [3, 9]: 1300 ± 300 nM
590 ± 110 nM | 10.1% | 69% | 24.8% | 72.6% | O=C(COc1ccc(CNc2cc(C(=O)NO)ccc2Cl)cc1)NCCCCCNc1cccc2c1C(=O)N(C1CCC(=O)NC1=O)C2=O (stereo not shown) [CRBN_1g] | – | –
390 ± 30 nM | 38.6% | 30% | – | – | COc1ccc(C(=O)NO)cc1NC(=O)c1ccc(NC(=O)CCCCCCCNC(=O)CC23CC4CC(CC(C4)C2)C3)cc1 [HyT_1n] | 2 | IC50 [3, 9]: 820 ± 50 nM
90 ± 10 nM | 9.8% | 52.6% | – | – | COc1ccc(C(=O)NO)cc1NC(=O)c1ccc(CNC(=O)CCCCCCCNC(=O)CC23CC4CC(CC(C4)C2)C3)cc1 [HyT_1o] | 4 | IC50 [3, 9]: 370 ± 30 nM
720 ± 150 nM | 6% | 45.5% | 8.3% | 72.4% | Cc1ncsc1-c1ccc(CNC(=O)[C@@H]2C[C@@H](O)CN2C(=O)[C@@H](NC(=O)CCCCCNC(=O)COc2ccc(CNc3cc(C(=O)NO)ccc3Cl)cc2)C(C)(C)C)cc1 [VHL_1l] | – | –
